Values after ≈ are worked out from the molar mass of the structure shown. Values joined by “and” are separate entries in the source; they are usually repeats but may differ in a detail not shown here. Identical values can stand only once. Values belong to the molecule of their own block, whether it stands above or below them.
Key:
Assay in all cases: ≥ marks a high value that may be exact or a test limit, other limits are often not marked, values filed in µg/mL are converted to µM
Bacillus subtilis DELTA = test system: Bacillus subtilis DELTA
[1] = test system: Candida albicans ATCC 200955
Candida parapsilosis = test system: Candida parapsilosis
[2] = test system: Enterococcus faecium ATCC 700221
[3] = test system: Escherichia coli ATCC 25922
[4] = test system: Escherichia coli DH5alpha
[5] = test system: Pseudomonas aeruginosa ATCC 27853
[6] = test system: Staphylococcus aureus ATCC 33591
[7] = test system: Zymomonas mobilis ATCC 10988
[8] = test system: Erwinia amylovora PMV 6076
[9] = test system: Pseudomonas syringae pv. syringae EPS 94
[10] = test system: Xanthomonas campestris pv. Vesicatoria 2133-2
[11] = test system: Klebsiella pneumoniae ATCC 13883
[12] = test system: Listeria monocytogenes ATCC 35152
[13] = test system: Staphylococcus aureus ATCC 25923
[14] = test system: Bacillus anthracis UM23-CL2
[15] = test system: Burkholderia cepacia J2540
Escherichia coli 44102 = test system: Escherichia coli 44102
[16] = test system: Staphylococcus aureus 22401
[17] = test system: Salmonella enterica subsp. enterica serovar Typhi DMST 22842
[18] = test system: Staphylococcus epidermidis ATCC 12228
Edwardsiella tarda TX1 = test system: Edwardsiella tarda TX1
Micrococcus luteus = test system: Micrococcus luteus
Staphylococcus aureus = test system: Staphylococcus aureus
Vibrio anguillarum C312 = test system: Vibrio anguillarum C312
[19] = test system: Pseudomonas aeruginosa ATCC 10419
[20] = test system: Pseudomonas aeruginosa ATCC 21625
[21] = test system: Pseudomonas aeruginosa ATCC 21630
[22] = test system: Pseudomonas aeruginosa LCCE
[23] = test system: Pseudomonas aeruginosa LCCI
[24] = test system: Pseudomonas aeruginosa LCGE
[25] = test system: Pseudomonas aeruginosa LC
[26] = test system: Salmonella enterica subsp. enterica serovar Typhimurium C77-31
[27] = test system: Staphylococcus aureus ATCC 29213
[28] = test system: Pseudomonas aeruginosa PAO1
[29] = test system: Staphylococcus aureus ATCC 43300
[30] = test system: Staphylococcus aureus LAC

SMILES: CC[C@H](C)[C@H](NC(=O)[C@H](Cc1ccccc1)NC(=O)[C@H](CCCCN)NC(=O)[C@H](CC(C)C)NC(=O)[C@H](CC(C)C)NC(=O)CN)C(=O)N[C@@H](CCCCN)C(=O)N[C@@H](CCCCN)C(=O)N[C@@H](CC(C)C)C(=O)N[C@@H](CC(C)C)C(N)=O [GLLKFIKKLL]
- MIC (Bacillus subtilis DELTA): 25.6 µM (≈ 30 µg/mL)
- MIC [1]: 9.5 µM (≈ 11.1 µg/mL)
- MIC (Candida parapsilosis): ≥ 34.1 µM
- MIC [2]: 9.5 µM (≈ 11.1 µg/mL)
- MIC [3]: 9.5 µM (≈ 11.1 µg/mL)
- MIC [4]: ≥ 256 µM
- MIC [5]: 28.4 µM (≈ 33.3 µg/mL)
- MIC [6]: 9.5 µM (≈ 11.1 µg/mL)
- MIC [7]: 5.97 µM (≈ 6.99 µg/mL)

SMILES: CC[C@H](C)[C@H](NC(=O)[C@H](CCCCN)NC(=O)[C@H](CCCCN)NC(=O)[C@H](Cc1ccccc1)NC(=O)[C@H](CC(C)C)NC(=O)[C@H](CCCCN)NC(=O)[C@@H](N)CCCCN)C(=O)N[C@@H](CC(C)C)C(=O)N[C@@H](CCCCN)C(=O)N[C@@H](Cc1ccc(O)cc1)C(=O)N[C@@H](CC(C)C)C(=O)N[C@@H](C)C(=O)NCC(=O)N1CCC[C@H]1C(=O)N[C@@H](C)C(=O)O [KKLFKKILKYLAGPA]
- MIC [8]: 14.1 µM (≈ 24.3 µg/mL)
- MIC [9]: 14.1 µM (≈ 24.3 µg/mL)
- MIC [10]: 3.54 µM (≈ 6.07 µg/mL)

SMILES: CC(C)C[C@H](NC(=O)[C@@H](NC(=O)[C@H](CCC(N)=O)NC(=O)[C@H](CCCCN)NC(=O)[C@H](Cc1cnc[nH]1)NC(=O)[C@H](CC(C)C)NC(=O)[C@H](C)NC(=O)[C@@H](NC(=O)[C@H](CC(C)C)NC(=O)[C@H](CCCCN)NC(=O)[C@H](CC(C)C)NC(=O)[C@@H](N)CCCCN)C(C)C)C(C)C)C(N)=O [KLKLVALHKQVL]
- MIC [3]: 10.8 µM (≈ 15 µg/mL)
- MIC [11]: 18 µM (≈ 25 µg/mL)
- MIC [12]: 14.4 µM (≈ 20 µg/mL)
- MIC [5]: 18 µM (≈ 25 µg/mL)
- MIC [13]: 7.2 µM (≈ 9.99 µg/mL)

SMILES: CC[C@H](C)[C@H](NC(=O)[C@H](CCCCN)NC(=O)[C@H](CCCCN)NC(=O)[C@H](Cc1ccccc1)NC(=O)[C@H](CC(C)C)NC(=O)[C@H](CCCCN)NC(=O)[C@H](Cc1c[nH]c2ccccc12)NC(=O)[C@@H](N)CCCCN)C(=O)N[C@@H](C)C(=O)N[C@@H](CCCCN)C(=O)N[C@@H](CCCCN)C(=O)N[C@@H](Cc1ccccc1)C(=O)N[C@@H](C)C(=O)N[C@@H](CCCCN)C(=O)N[C@@H](C)C(=O)N[C@@H](Cc1ccccc1)C(=O)N[C@H](C(=O)N[C@@H](C)C(=O)N[C@@H](CCC(=O)O)C(=O)N[C@H](C(=O)N[C@@H](CCSC)C(=O)O)[C@@H](C)CC)C(C)C [KWKLFKKIAKKFAKAFVAEIM]
- MIC [14]: 24.7 µM and ≥ 49.5 µM
- MIC [15]: 12.4 µM (≈ 31.3 µg/mL)

SMILES: CC[C@H](C)[C@H](NC(=O)[C@H](CCC(=O)O)NC(=O)[C@H](C)NC(=O)[C@H](Cc1ccccc1)NC(=O)[C@@H](N)CC(N)=O)C(=O)N[C@@H](Cc1ccccc1)C(=O)N[C@@H](C)C(=O)N[C@@H](C)C(=O)N[C@H](C(=O)N[C@@H](CC(N)=O)C(=O)N[C@@H](CCCCN)C(=O)N[C@@H](CC(C)C)C(=O)N[C@H](C(=O)N[C@@H](CCCCN)C(=O)N[C@@H](CCC(N)=O)C(=O)NCC(=O)N[C@H](C(=O)N[C@H](C(=O)N[C@@H](CCCCN)C(=O)NCC(=O)O)C(C)C)C(C)C)[C@@H](C)CC)C(C)C [NFAEIFAAVNKLIKQGVVKG]
- MIC (Escherichia coli 44102): 25 µM (≈ 53.7 µg/mL)
- MIC [16]: ≥ 50 µM

SMILES: CC(C)[C@H](NC(=O)CNC(=O)[C@@H](N)CC(N)=O)C(=O)N[C@@H](CCC(N)=O)C(=O)N1CCC[C@H]1C(=O)N[C@@H](CCCCN)C(=O)N[C@@H](Cc1ccc(O)cc1)C(=O)N[C@@H](CCCN=C(N)N)C(=O)N[C@@H](Cc1c[nH]c2ccccc12)C(=O)N[C@@H](Cc1c[nH]c2ccccc12)C(=O)N[C@@H](CCCN=C(N)N)C(=O)N[C@@H](Cc1c[nH]c2ccccc12)C(=O)N[C@@H](Cc1c[nH]c2ccccc12)C(=O)N[C@@H](CCCN=C(N)N)C(=O)N[C@@H](CCCN=C(N)N)C(=O)N[C@@H](Cc1c[nH]c2ccccc12)C(=O)N[C@@H](Cc1c[nH]c2ccccc12)C(=O)O [NGVQPKYRWWRWWRRWW]
- MIC [3]: 18.1 µM (≈ 46 µg/mL)
- MIC [17]: ≥ 35.7 µM
- MIC [13]: > 35.7 µM
- MIC [18]: 9.03 µM (≈ 23 µg/mL)

Second part, the molecule after the results:

- MIC (Edwardsiella tarda TX1): 2.83 µM (≈ 8.3 µg/mL)
- MIC (Micrococcus luteus): 1.41 µM (≈ 4.15 µg/mL)
- MIC (Staphylococcus aureus): 2.83 µM (≈ 8.3 µg/mL)
- MIC (Vibrio anguillarum C312): 5.66 µM (≈ 16.6 µg/mL)
SMILES: CC[C@H](C)[C@H](NC(=O)[C@H](Cc1cnc[nH]1)NC(=O)[C@H](CO)NC(=O)[C@@H](N)CCC(N)=O)C(=O)N[C@@H](CO)C(=O)N[C@@H](CC(C)C)C(=O)N[C@H]1CSSC[C@@H](C(=O)N[C@@H](CCCCN)C(=O)N[C@@H](Cc2ccccc2)C(=O)O)NC(=O)[C@@H]2CSSC[C@H](NC(=O)[C@H](Cc3c[nH]c4ccccc34)NC(=O)[C@H](CCCN=C(N)N)NC1=O)C(=O)N[C@H]1CSSC[C@H](NC(=O)CNC(=O)[C@H](CCCCN)NC(=O)[C@H](CC(N)=O)NC(=O)[C@H](C)NC(=O)[C@H](CCCCN)NC(=O)[C@@H]3CSSC[C@H](NC(=O)[C@H](CC(N)=O)NC1=O)C(=O)N3)C(=O)NCC(=O)N[C@@H](Cc1ccccc1)C(=O)N2 [QSHISLCRWCCNCCKANKGCGFCCKF]

- MIC [3]: 128 µM (≈ 281 µg/mL)
- MIC [19]: ≥ 256 µM
- MIC [20]: ≥ 256 µM
- MIC [21]: ≥ 256 µM
- MIC [5]: 256 µM (≈ 562 µg/mL)
- MIC [22]: ≥ 256 µM
- MIC [23]: ≥ 256 µM
- MIC [24]: ≥ 256 µM
- MIC [25]: ≥ 64 µM
- MIC [26]: ≥ 256 µM
- MIC [27]: 256 µM (≈ 562 µg/mL)
- MIC [18]: 32 µM (≈ 70.2 µg/mL)
SMILES: CC[C@H](C)[C@H](NC(=O)[C@H](CCCCN)NC(=O)[C@H](CCCCN)NC(=O)[C@H](CC(C)C)NC(=O)[C@H](CCCN=C(N)N)NC(=O)[C@H](CCCCN)NC(=O)[C@H](CCCN=C(N)N)NC(=O)[C@@H](NC(=O)[C@H](CCCCN)NC(=O)[C@H](CCCCN)NC(=O)[C@H](CCCN=C(N)N)NC(=O)[C@H](CC(C)C)NC(=O)[C@H](CCCN=C(N)N)NC(=O)[C@H](CCCN=C(N)N)NC(=O)[C@H](Cc1ccccc1)NC(=O)[C@@H](N)CCCN=C(N)N)[C@@H](C)CC)C(N)=O [RFRRLRKKIRKRLKKI]

- MIC [3]: 46.1 µM (≈ 64 µg/mL)
- MIC [28]: 15.6 µM (≈ 21.7 µg/mL)
- MIC [29]: 31.3 µM (≈ 43.4 µg/mL)
- MIC [30]: 23.1 µM (≈ 32 µg/mL)
SMILES: NC(N)=NCCC[C@H](NC(=O)[C@H](CCCN=C(N)N)NC(=O)[C@H](CCCN=C(N)N)NC(=O)[C@@H](N)CCCN=C(N)N)C(=O)N[C@@H](Cc1c[nH]c2ccccc12)C(=O)N[C@@H](Cc1c[nH]c2ccccc12)C(=O)N[C@@H](Cc1c[nH]c2ccccc12)C(=O)N[C@@H](Cc1c[nH]c2ccccc12)C(=O)O [RRRRWWWW]
